# Measurements from ChEMBL document CHEMBL5550130, “Discovery of harmiprims, harmine-primaquine hybrids, as potent and selective anticancer and antimalarial compounds” (Bioorg Med Chem, 2024).
# pIC50: −log10 of the molar value. Activity calls are given as the source filed them. No cut-off for these calls is given here.
# What was measured:
# Plasmodium falciparum [1] = assay: Gametocytocidal activity against gametocytes of Plasmodium falciparum NF54 assessed as inhibition of ATP production measured after 48 hrs by Bac-TiterGlo analysis; format: functional, organism-based; details: NF54, 48 h
# RNA [2] = assay: Binding affinity to double stranded RNA (unknown origin) assessed as increase in fluorescence intensity by fluorescence quenching analysis; format: nucleic-acid assay
# MCF7 [3] = assay: Antiproliferative activity against human MCF7 cells assessed as reduction in cell viability incubated for 72 hrs by MTT assay; format: functional, cell-based; details: MCF7, 72 h
# Calf thymus DNA [4] = assay: Binding affinity to calf thymus DNA assessed as binding constant by UV-Visible absorption spectroscopic analysis; details: Bos taurus
# [5] = Selectivity index, ratio of IC50 for antiproliferative activity against human HEK293T cells to IC50 for antiplasmodial activity against erythrocytic stage of chloroquine-sensitive Plasmodium falciparum 3D7; format: toxicity, cell-based; details: read-out: Ratio IC50
# dsDNA [6] = assay: Binding affinity to double stranded DNA (unknown origin) assessed as increase in fluorescence intensity by fluorescence quenching analysis; format: nucleic-acid assay
# Calf thymus DNA [7] = assay: Binding affinity to calf thymus DNA assessed as thermal stabilization by thermal denaturation based UV-Visible absorption spectroscopic analysis; details: Bos taurus
# Plasmodium berghei [8] = assay: Antiplasmodial activity against hepatic stage of Plasmodium berghei sporozoites infected in human Huh-7 cells assessed as reduction in parasite growth at 10 uM incubated for 1 hr by bioluminescence assay; format: functional, organism-based
# [9] = Selectivity index, ratio of IC50 for antiproliferative activity against human HEK293T cells to IC50 for antiproliferative activity against human MCF7 cells; format: toxicity, cell-based; details: HEK293T cells versus MCF7 cells, read-out: Ratio IC50
# [10] = Drug uptake in human MCF7 cells at 10 uM incubated for 30 mins by fluorescence microscopic analysis; format: ADME, cell-based; details: mcf7, 0.5 h
# HepG2 = assay: Antiproliferative activity against human HepG2 cells assessed as reduction in cell viability incubated for 72 hrs by MTT assay; format: functional, cell-based; details: HepG2, 72 h
# RNA [11] = assay: Binding affinity to double stranded RNA (unknown origin) by CD spectroscopic analysis; format: nucleic-acid assay
# HCT-116 = assay: Antiproliferative activity against human HCT-116 cells assessed as reduction in cell viability incubated for 72 hrs by MTT assay; format: functional, cell-based; details: HCT-116, 72 h
# [12] = Antiproliferative activity against human HEK293T cells assessed as reduction in cell viability incubated for 72 hrs by MTT assay; format: toxicity, cell-based, HEK-293T
# MCF7 [13] = assay: Induction of cell cycle arrest in human MCF7 cells assessed as increase in accumulation of cells at G2/M phase at 4.5 uM measured upto 48 hrs by propidium iodide/RNAse A staining based cell sorter analysis; format: functional
# Plasmodium falciparum [14] = assay: Resistance index, ratio of IC50 for antiplasmodial activity against erythrocytic stage of chloroquine-resistant Plasmodium falciparum Dd2 to IC50 for antiplasmodial activity against erythrocytic stage of chloroquine-sensitive Plasmodium falciparum 3D7; format: functional
# dsDNA [15] = assay: Binding affinity to double stranded DNA (unknown origin) by CD spectroscopic analysis; format: nucleic-acid assay
# SW-620 = assay: Antiproliferative activity against human SW620 cells assessed as reduction in cell viability incubated for 72 hrs by MTT assay; format: functional, cell-based; details: SW-620, 72 h
# RNA [16] = assay: Binding affinity to double stranded RNA (unknown origin) assessed as thermal stabilization by thermal denaturation based UV-Visible absorption spectroscopic analysis; format: nucleic-acid assay
# RNA [17] = assay: Binding affinity to double stranded RNA (unknown origin) assessed as binding constant by UV-Visible absorption spectroscopic analysis; format: nucleic-acid assay
# Plasmodium berghei [18] = assay: Antiplasmodial activity against hepatic stage of Plasmodium berghei sporozoites infected in human Huh-7 cells assessed as inhibition of parasite growth incubated for 1 hr by bioluminescence assay; format: functional, organism-based; details: Huh-7, 1 h
# MCF7 [19] = assay: Induction of cell cycle arrest in human MCF7 cells assessed as increase in accumulation of cells at G1 phase at 4.5 uM measured upto 48 hrs by propidium iodide/RNAse A staining based cell sorter analysis; format: functional
# Plasmodium falciparum [20] = assay: Antiplasmodial activity against erythrocytic stage of chloroquine-resistant Plasmodium falciparum Dd2 assessed as inhibition of parasite growth incubated for 3 days by HRP2-ELISA; format: functional, organism-based; details: Dd2, 72 h
# Plasmodium berghei [21] = assay: Antiplasmodial activity against hepatic stage of Plasmodium berghei sporozoites infected in human Huh-7 cells assessed as reduction in parasite growth at 1 uM incubated for 1 hr by bioluminescence assay; format: functional, organism-based
# Plasmodium falciparum [22] = assay: Antiplasmodial activity against erythrocytic stage of chloroquine-sensitive Plasmodium falciparum 3D7 assessed as inhibition of parasite growth incubated for 3 days by HRP2-ELISA; format: functional, organism-based; details: 3D7, 72 h
# Huh-7 [23] = assay: Cytotoxicity against human Huh-7 cells infected with Plasmodium berghei sporozoites at 1 uM by alamar blue staining based assay; format: functional, cell-based
# [24] = Drug uptake in human MCF7 cells at 10 uM incubated for 1 hr by fluorescence microscopic analysis; format: ADME, cell-based; details: mcf7, 1 h
# Huh-7 [25] = assay: Cytotoxicity against human Huh-7 cells infected with Plasmodium berghei sporozoites at 10 uM by alamar blue staining based assay; format: functional, cell-based
# MCF7 [26] = assay: Induction of cell cycle arrest in human MCF7 cells assessed as increase in accumulation of cells at G1 phase at 0.75 uM measured after 48 hrs by propidium iodide/RNAse A staining based cell sorter analysis; format: functional
# MCF7 [27] = assay: Induction of cell cycle arrest in human MCF7 cells assessed as increase in accumulation of cells at G1 phase at 0.75 uM measured after 24 hrs by propidium iodide/RNAse A staining based cell sorter analysis; format: functional
# MCF7 [28] = assay: Induction of cell cycle arrest in human MCF7 cells assessed as decrease in accumulation of cells at S phase at 0.75 uM measured after 24 hrs by propidium iodide/RNAse A staining based cell sorter analysis; format: functional
# MCF7 [29] = assay: Induction of cell cycle arrest in human MCF7 cells assessed as increase in accumulation of cells at G2/M phase at 0.75 uM measured upto 48 hrs by propidium iodide/RNAse A staining based cell sorter analysis; format: functional
# [30] = Drug uptake in human MCF7 cells at 1 uM incubated for 30 mins by Mitotracker Deep Red staining confocal microscopic analysis; format: ADME, cell-based; details: mcf7, 0.5 h
Structure (SMILES),pIC50 (MCF7 [3]),selectivity ratio [5],selectivity ratio [9],pIC50 (HepG2),pIC50 (HCT-116),IC50 at 72 h [12],Ratio IC50 (Plasmodium falciparum [14]),pIC50 (SW-620),pIC50 (Plasmodium falciparum [20]),pIC50 (Plasmodium falciparum [22]),further results
CC[C@H](C)[C@H](NC(=O)[C@H]([C@@H](C)CC)N(C)C(C)=O)C(=O)N[C@H](C(=O)N[C@@H](CC(C)C)C(=O)[C@@]1(C)CO1)[C@@H](C)O [EPOXOMYCIN],,,,,,,,,,,pIC50 (Plasmodium falciparum [1]): 7.78
COc1cc(NC(C)CCCn2cc(Cn3c4cc(OC)ccc4c4ccnc(C)c43)nn2)c2ncccc2c1 (stereo unspecified),5.05,> 95.5,> 5.6,< 4.30,4.63,> 50 µM,1.73,< 4.30,6.04,6.28,Activity (RNA [2]): Active; log Ks (Calf thymus DNA [4]): 5.5; Activity (dsDNA [6]): Active; Activity (Calf thymus DNA [7]): inactive; Activity (Plasmodium berghei [8]): Active; Drug uptake [10]: Active; Activity (RNA [11]): inactive; Activity (MCF7 [13]): inactive; Activity (dsDNA [15]): inactive; Activity (RNA [16]): inactive; log Ks (RNA [17]): 4.6; pIC50 (Plasmodium berghei [18]): 5.84; Activity (MCF7 [19]): Active; Activity (Plasmodium berghei [21]): Active
O=c1[nH]cc(F)c(=O)[nH]1 [FLUOROURACIL],4.62,,0.74,5.26,4.84,17.6 µM,,,,,
COc1cc(NC(C)CCCNC(=O)NCc2cc3c([nH]c4ccccc43)c(C)n2)c2ncccc2c1 (stereo unspecified),4.93,> 20.8,> 4.29,< 4.30,4.56,> 50 µM,0.98,4.60,5.63,5.62,
COc1cc(NC(C)CCCN)c2ncccc2c1 (stereo unspecified) [PRIMAQUINE],4.58,7.7,1.42,,4.68,37.6 µM,1.12,5.04,5.26,5.31,
COc1cc(NC(C)CCCn2cc(COc3ccc4[nH]c5c(C)nccc5c4c3)nn2)c2ncccc2c1-c1c(OC)cc(NC(C)CCCn2cc(COc3ccc4[nH]c5c(C)nccc5c4c3)nn2)c2ncccc12 (stereo unspecified),< 4.00,> 3250,,< 4.30,< 4.30,> 50 µM,1.12,< 4.30,7.76,7.81,Activity (RNA [2]): Active; log Ks (Calf thymus DNA [4]): 5.8; Activity (dsDNA [6]): Active; Activity (Huh-7 [23]): inactive; pIC50 (Plasmodium falciparum [1]): 7.04; Activity (Calf thymus DNA [7]): inactive; Activity (Plasmodium berghei [8]): Active; Activity (RNA [11]): inactive; Drug uptake [24]: Not Active; Activity (dsDNA [15]): inactive; Activity (RNA [16]): inactive; pIC50 (Plasmodium berghei [18]): 7.44; Activity (Huh-7 [25]): inactive; Activity (Plasmodium berghei [21]): Active
CN(C)c1ccc2nc3ccc(N(C)C)cc3[s+]c2c1 [METHYLENE BLUE ANHYDROUS],,,,,,,,,,,pIC50 (Plasmodium falciparum [1]): 6.30
COc1ccc2c(c1)[nH]c1c(C)nccc12 [HARMINE],,2.5,1.55,4.83,5.12,21 µM,>3.36,5.14,< 4.56,,
COc1cc(NC(C)CCCNC(=O)NCCn2c3cc(OC)ccc3c3ccnc(C)c32)c2ncccc2c1 (stereo unspecified),5.04,18.1,1.39,4.91,4.97,12.7 µM,1.57,5.00,5.96,6.15,
COc1cc(NC(C)CCCNC(=O)NCCOc2ccc3c(c2)[nH]c2c(C)nccc23)c2ncccc2c1 (stereo unspecified),5.05,1.1,0.86,5.10,5.11,7.63 µM,1.2,5.12,5.09,5.17,
COc1cc(NC(C)CCCn2cc(-c3cc4c([nH]c5ccccc54)c(C)n3)nn2)c2ncccc2c1 (stereo unspecified),4.84,> 58.3,> 3.46,< 4.30,4.74,> 50 µM,0.74,4.80,6.20,6.07,
COc1cc(NC(C)CCCNC(=O)NCc2nccc3c2[nH]c2ccccc23)c2ncccc2c1 (stereo unspecified),5.84,0.1,< 0.48,6.16,6.03,0.68 µM,1.31,5.61,5.21,5.33,Activity (RNA [2]): Active; log Ks (Calf thymus DNA [4]): 5.5; Activity (MCF7 [26]): Active; Activity (dsDNA [6]): Active; Activity (Huh-7 [23]): Active; Activity (Calf thymus DNA [7]): inactive; Activity (Plasmodium berghei [8]): Active; Activity (MCF7 [27]): Active; Activity (MCF7 [28]): Active; Activity (RNA [11]): inactive; Activity (dsDNA [15]): inactive; Activity (MCF7 [29]): inactive; Activity (RNA [16]): inactive; log Ks (RNA [17]): 4.2; Drug uptake [30]: Not Active; Activity (Huh-7 [25]): Active; Activity (Plasmodium berghei [21]): Active
COc1cc(NC(C)CCCn2cc(COc3ccc4[nH]c5c(C)nccc5c4c3)nn2)c2ncccc2c1 (stereo unspecified),5.02,,2.67,5.18,4.74,25.2 µM,2.11,5.05,6.05,6.37,Activity (RNA [2]): inactive; log Ks (Calf thymus DNA [4]): 3.4; Activity (dsDNA [6]): inactive; Activity (Calf thymus DNA [7]): inactive; Drug uptake [10]: Active; Activity (RNA [11]): inactive; Activity (dsDNA [15]): inactive; Activity (RNA [16]): inactive; log Ks (RNA [17]): 3.4
COc1cc(NC(C)CCCn2cc(COc3ccc4c(c3)[nH]c3c(C)nccc34)nn2)c2ncccc2c1 (stereo unspecified),5.23,36,1.28,5.10,5.14,7.62 µM,1.67,5.16,6.45,6.67,
COc1cc(NC(C)CCCn2cc(-c3nccc4c3[nH]c3ccccc34)nn2)c2ncccc2c1 (stereo unspecified),< 4.30,10,< 0.51,< 4.30,4.99,25.3 µM,1.77,4.85,5.35,5.60,
COc1cc(NC(C)CCCNC(=O)NCCOc2ccc3[nH]c4c(C)nccc4c3c2)c2ncccc2c1 (stereo unspecified),4.85,1.1,0.84,4.96,5.11,12 µM,0.83,4.97,5.05,4.97,
